Assay results reported in ChEMBL document CHEMBL4507290 (2021).

Experiments:
[1] = target: Serine/threonine-protein kinase Sgk3 (Homo sapiens) (UniProt Q96BR1); conditions: Compound concentration 1000.0 nM
[2] = target: cGMP-dependent protein kinase 2 (Homo sapiens) (UniProt Q13237); conditions: Compound concentration 1000.0 nM
[3] = target: Proto-oncogene tyrosine-protein kinase ROS (Homo sapiens) (UniProt P08922); conditions: Compound concentration 1000.0 nM
[4] = target: Phosphorylase b kinase gamma catalytic chain, skeletal muscle/heart isoform (Homo sapiens) (UniProt Q16816); conditions: Compound concentration 1000.0 nM
[5] = target: Serine/threonine-protein kinase 17B (Homo sapiens) (UniProt O94768); conditions: Compound concentration 1000.0 nM
[6] = target: Tyrosine-protein kinase receptor Tie-1 (Homo sapiens) (UniProt P35590); conditions: Compound concentration 1000.0 nM
[7] = target: 5-hydroxytryptamine receptor 1E (Homo sapiens) (UniProt P28566); conditions: Compound concentration 10.0 uM
[8] = target: Serine/threonine-protein kinase Nek3 (Homo sapiens) (UniProt P51956); conditions: Compound concentration 1000.0 nM
[9] = system: Phosphatidylinositol 4,5-bisphosphate 3-kinase catalytic subunit alpha isoform (Homo sapiens), P42336 [E545K]; conditions: Compound concentration 1000.0 nM
[10] = target: Tyrosine-protein kinase HCK (Homo sapiens) (UniProt P08631); conditions: Compound concentration 1000.0 nM
[11] = target: Dual specificity tyrosine-phosphorylation-regulated kinase 1B (Homo sapiens) (UniProt Q9Y463); conditions: Compound concentration 1000.0 nM
[12] = target: Casein kinase I isoform alpha (Homo sapiens) (UniProt P48729); conditions: Compound concentration 1000.0 nM
[13] = target: Rhodopsin kinase GRK1 (Homo sapiens) (UniProt Q15835); conditions: Compound concentration 1000.0 nM
[14] = target: Protein kinase C eta type (Homo sapiens) (UniProt P24723); conditions: Compound concentration 1000.0 nM
[15] = target: Aurora kinase B (Homo sapiens) (UniProt Q96GD4); conditions: Compound concentration 1000.0 nM
[16] = target: Mitogen-activated protein kinase 1 (Homo sapiens) (UniProt P28482); conditions: Compound concentration 1000.0 nM
[17] = target: Death-associated protein kinase 2 (Homo sapiens) (UniProt Q9UIK4); conditions: Compound concentration 1000.0 nM
[18] = target: Serine/threonine-protein kinase WNK3 (Homo sapiens) (UniProt Q9BYP7); conditions: Compound concentration 1000.0 nM
[19] = target: Mitogen-activated protein kinase kinase kinase kinase 2 (Homo sapiens) (UniProt Q12851); conditions: Compound concentration 1000.0 nM
[20] = system: Mast/stem cell growth factor receptor Kit (Homo sapiens), P10721 [D816H]; conditions: Compound concentration 1000.0 nM
[21] = target: Receptor tyrosine-protein kinase erbB-2 (Homo sapiens) (UniProt P04626); conditions: Compound concentration 1000.0 nM
[22] = target: Ankyrin repeat and protein kinase domain-containing protein 1 (Homo sapiens) (UniProt Q8NFD2); conditions: Compound concentration 1000.0 nM
[23] = target: ALK tyrosine kinase receptor (Homo sapiens) (UniProt Q9UM73); conditions: Compound concentration 1000.0 nM
[24] = target: Sodium-dependent noradrenaline transporter (Homo sapiens) (UniProt P23975); conditions: Compound concentration 10.0 uM
[25] = target: Serine/threonine-protein kinase SBK1 (Homo sapiens) (UniProt Q52WX2); conditions: Compound concentration 1000.0 nM
[26] = target: cGMP-dependent protein kinase 1 (Homo sapiens) (UniProt Q13976); conditions: Compound concentration 1000.0 nM
[27] = target: Ephrin type-B receptor 3 (Homo sapiens) (UniProt P54753); conditions: Compound concentration 1000.0 nM
[28] = target: TGF-beta receptor type-2 (Homo sapiens) (UniProt P37173); conditions: Compound concentration 1000.0 nM
[29] = target: Leucine-rich repeat serine/threonine-protein kinase 2 (Homo sapiens) (UniProt Q5S007); conditions: Compound concentration 1000.0 nM
[30] = target: Mitogen-activated protein kinase kinase kinase kinase 3 (Homo sapiens) (UniProt Q8IVH8); conditions: Compound concentration 1000.0 nM
[31] = target: Calcium/calmodulin-dependent protein kinase type 1D (Homo sapiens) (UniProt Q8IU85); conditions: Compound concentration 1000.0 nM
[32] = target: Mitogen-activated protein kinase 15 (Homo sapiens) (UniProt Q8TD08); conditions: Compound concentration 1000.0 nM
[33] = target: Serine/threonine-protein kinase Chk1 (Homo sapiens) (UniProt O14757); conditions: Compound concentration 1000.0 nM
[34] = target: Mitogen-activated protein kinase kinase kinase 19 (Homo sapiens) (UniProt Q56UN5); conditions: Compound concentration 1000.0 nM
[35] = target: Muscle, skeletal receptor tyrosine-protein kinase (Homo sapiens) (UniProt O15146); conditions: Compound concentration 1000.0 nM
[36] = system: Receptor-type tyrosine-protein kinase FLT3 (Homo sapiens), P36888 [UNDEFINED MUTATION]; conditions: Compound concentration 1000.0 nM
[37] = target: Interleukin-1 receptor-associated kinase 3 (Homo sapiens) (UniProt Q9Y616); conditions: Compound concentration 1000.0 nM
[38] = target: Serine/threonine-protein kinase 26 (Homo sapiens) (UniProt Q9P289); conditions: Compound concentration 1000.0 nM
[39] = target: Mitogen-activated protein kinase kinase kinase 10 (Homo sapiens) (UniProt Q02779); conditions: Compound concentration 1000.0 nM
[40] = system: Fibroblast growth factor receptor 3 (Homo sapiens), P22607 [G697C]; conditions: Compound concentration 1000.0 nM
[41] = system: Tyrosine-protein kinase ABL1 (Homo sapiens), P00519 [Y253F]; conditions: Compound concentration 1000.0 nM
[42] = target: Serine/threonine-protein kinase PknB (Mycobacterium tuberculosis) (UniProt P9WI81); conditions: Compound concentration 1000.0 nM
[43] = target: cAMP-dependent protein kinase catalytic subunit PRKX (Homo sapiens) (UniProt P51817); conditions: Compound concentration 1000.0 nM
[44] = target: Tyrosine-protein kinase Fgr (Homo sapiens) (UniProt P09769); conditions: Compound concentration 1000.0 nM
[45] = target: Dual specificity mitogen-activated protein kinase kinase 1 (Homo sapiens) (UniProt Q02750); conditions: Compound concentration 1000.0 nM

Sequence of Muscle, skeletal receptor tyrosine-protein kinase (Homo sapiens) (O15146 whole entry): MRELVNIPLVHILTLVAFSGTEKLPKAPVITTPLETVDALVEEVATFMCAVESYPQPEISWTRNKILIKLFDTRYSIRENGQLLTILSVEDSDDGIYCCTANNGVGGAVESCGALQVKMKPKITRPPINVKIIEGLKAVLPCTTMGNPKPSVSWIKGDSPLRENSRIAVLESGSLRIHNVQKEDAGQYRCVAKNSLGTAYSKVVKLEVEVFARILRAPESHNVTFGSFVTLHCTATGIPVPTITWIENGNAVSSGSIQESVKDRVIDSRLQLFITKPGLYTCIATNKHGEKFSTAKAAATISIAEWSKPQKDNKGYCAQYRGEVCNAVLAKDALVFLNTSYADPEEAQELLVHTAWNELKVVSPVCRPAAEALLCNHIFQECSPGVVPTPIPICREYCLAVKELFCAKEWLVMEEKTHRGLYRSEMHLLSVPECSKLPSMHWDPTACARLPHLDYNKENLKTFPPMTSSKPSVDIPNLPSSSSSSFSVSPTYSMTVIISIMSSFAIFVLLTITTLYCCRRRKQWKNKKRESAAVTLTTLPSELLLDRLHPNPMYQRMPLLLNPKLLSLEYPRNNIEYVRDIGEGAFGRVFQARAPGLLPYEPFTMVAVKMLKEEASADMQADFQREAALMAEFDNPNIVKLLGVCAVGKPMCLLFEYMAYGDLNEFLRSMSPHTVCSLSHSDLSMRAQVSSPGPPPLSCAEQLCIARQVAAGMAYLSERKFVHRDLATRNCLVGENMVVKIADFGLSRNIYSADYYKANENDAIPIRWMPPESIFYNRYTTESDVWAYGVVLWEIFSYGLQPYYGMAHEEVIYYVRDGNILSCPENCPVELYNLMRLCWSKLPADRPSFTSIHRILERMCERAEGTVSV
Sequence of TGF-beta receptor type-2 (Homo sapiens) (P37173 whole entry): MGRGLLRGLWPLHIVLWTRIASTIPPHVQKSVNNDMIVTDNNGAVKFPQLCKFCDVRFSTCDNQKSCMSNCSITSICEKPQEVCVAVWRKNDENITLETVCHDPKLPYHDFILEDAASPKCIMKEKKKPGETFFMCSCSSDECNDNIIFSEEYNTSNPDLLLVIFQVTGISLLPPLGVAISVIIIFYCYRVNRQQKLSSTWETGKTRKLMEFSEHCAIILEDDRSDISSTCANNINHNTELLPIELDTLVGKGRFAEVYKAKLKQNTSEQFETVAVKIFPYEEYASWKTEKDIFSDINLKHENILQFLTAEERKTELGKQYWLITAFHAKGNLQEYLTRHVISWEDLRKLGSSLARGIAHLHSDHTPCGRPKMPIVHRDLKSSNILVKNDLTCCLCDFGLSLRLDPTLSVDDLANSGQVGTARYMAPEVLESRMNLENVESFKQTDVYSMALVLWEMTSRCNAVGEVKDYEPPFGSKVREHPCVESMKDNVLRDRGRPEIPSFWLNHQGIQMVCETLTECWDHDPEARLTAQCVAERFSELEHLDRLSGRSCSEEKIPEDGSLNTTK
Sequence of Aurora kinase B (Homo sapiens) (Q96GD4 whole entry): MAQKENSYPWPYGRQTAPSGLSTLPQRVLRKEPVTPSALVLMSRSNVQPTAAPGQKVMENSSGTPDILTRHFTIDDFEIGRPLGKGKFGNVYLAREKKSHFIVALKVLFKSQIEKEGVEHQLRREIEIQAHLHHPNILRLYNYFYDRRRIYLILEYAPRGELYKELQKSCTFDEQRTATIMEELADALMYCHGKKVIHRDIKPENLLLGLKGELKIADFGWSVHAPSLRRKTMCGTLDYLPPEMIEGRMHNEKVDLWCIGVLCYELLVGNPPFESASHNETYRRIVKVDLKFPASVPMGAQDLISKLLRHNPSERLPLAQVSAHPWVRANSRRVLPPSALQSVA
Sequence of ALK tyrosine kinase receptor (Homo sapiens) (Q9UM73 19-1620 limits assumed): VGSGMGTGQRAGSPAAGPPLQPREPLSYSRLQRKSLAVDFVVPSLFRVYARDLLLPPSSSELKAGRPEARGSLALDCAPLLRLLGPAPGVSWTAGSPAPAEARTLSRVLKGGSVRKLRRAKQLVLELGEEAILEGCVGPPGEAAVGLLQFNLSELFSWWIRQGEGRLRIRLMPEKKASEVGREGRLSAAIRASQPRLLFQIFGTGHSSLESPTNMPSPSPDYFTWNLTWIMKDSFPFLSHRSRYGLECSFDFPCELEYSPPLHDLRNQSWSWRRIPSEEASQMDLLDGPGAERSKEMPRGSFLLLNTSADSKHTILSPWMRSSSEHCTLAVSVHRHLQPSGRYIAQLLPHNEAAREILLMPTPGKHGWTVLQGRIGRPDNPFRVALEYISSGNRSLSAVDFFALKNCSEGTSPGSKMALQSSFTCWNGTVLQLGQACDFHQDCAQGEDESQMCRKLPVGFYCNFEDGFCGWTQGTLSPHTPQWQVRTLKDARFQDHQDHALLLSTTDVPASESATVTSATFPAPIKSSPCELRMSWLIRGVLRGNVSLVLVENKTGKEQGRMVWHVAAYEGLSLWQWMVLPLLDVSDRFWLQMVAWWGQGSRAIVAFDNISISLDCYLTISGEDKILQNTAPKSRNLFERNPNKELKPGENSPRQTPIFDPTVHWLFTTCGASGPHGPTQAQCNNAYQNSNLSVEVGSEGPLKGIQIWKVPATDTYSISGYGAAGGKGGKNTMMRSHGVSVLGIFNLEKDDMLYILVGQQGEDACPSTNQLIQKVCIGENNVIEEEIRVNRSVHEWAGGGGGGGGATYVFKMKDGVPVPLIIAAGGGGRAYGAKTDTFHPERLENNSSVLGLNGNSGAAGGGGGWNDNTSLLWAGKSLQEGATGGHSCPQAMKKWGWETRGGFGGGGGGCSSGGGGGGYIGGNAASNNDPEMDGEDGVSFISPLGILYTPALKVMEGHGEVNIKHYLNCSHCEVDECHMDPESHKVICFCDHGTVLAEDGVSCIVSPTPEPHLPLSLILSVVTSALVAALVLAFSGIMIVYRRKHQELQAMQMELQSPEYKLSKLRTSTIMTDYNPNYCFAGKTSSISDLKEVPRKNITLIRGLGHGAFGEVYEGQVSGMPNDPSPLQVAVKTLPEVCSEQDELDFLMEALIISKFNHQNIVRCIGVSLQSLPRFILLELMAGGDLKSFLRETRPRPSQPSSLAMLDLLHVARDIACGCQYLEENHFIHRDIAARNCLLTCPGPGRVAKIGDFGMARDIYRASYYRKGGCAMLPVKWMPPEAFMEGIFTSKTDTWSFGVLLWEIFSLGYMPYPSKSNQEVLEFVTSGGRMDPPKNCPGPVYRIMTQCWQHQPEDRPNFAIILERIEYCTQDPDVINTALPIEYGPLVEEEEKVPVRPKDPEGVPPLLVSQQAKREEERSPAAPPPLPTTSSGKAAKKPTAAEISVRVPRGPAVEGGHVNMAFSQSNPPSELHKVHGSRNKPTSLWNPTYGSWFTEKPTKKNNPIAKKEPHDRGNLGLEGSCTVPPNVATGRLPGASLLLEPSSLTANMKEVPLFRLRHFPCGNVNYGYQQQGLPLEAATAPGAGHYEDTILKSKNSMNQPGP
Sequence of cGMP-dependent protein kinase 1 (Homo sapiens) (Q13976 whole entry): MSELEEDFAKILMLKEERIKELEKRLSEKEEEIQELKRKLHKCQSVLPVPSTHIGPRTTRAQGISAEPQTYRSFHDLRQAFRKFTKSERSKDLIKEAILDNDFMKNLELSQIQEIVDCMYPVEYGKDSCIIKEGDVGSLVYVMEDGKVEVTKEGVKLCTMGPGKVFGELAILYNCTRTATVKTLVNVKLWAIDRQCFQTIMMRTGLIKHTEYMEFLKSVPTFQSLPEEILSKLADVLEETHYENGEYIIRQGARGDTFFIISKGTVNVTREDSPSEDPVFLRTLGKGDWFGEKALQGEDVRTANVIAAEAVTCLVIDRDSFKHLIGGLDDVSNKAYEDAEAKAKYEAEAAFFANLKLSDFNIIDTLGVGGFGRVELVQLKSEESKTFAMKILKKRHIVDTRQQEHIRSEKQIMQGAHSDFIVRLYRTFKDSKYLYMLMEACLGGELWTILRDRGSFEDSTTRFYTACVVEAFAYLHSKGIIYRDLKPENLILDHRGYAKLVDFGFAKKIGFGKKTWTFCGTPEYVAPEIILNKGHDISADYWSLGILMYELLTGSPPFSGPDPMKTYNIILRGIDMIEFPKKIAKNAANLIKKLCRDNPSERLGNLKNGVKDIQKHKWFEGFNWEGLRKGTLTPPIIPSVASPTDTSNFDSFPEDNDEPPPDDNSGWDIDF
Sequence of Serine/threonine-protein kinase PknB (Mycobacterium tuberculosis) (P9WI81 whole entry): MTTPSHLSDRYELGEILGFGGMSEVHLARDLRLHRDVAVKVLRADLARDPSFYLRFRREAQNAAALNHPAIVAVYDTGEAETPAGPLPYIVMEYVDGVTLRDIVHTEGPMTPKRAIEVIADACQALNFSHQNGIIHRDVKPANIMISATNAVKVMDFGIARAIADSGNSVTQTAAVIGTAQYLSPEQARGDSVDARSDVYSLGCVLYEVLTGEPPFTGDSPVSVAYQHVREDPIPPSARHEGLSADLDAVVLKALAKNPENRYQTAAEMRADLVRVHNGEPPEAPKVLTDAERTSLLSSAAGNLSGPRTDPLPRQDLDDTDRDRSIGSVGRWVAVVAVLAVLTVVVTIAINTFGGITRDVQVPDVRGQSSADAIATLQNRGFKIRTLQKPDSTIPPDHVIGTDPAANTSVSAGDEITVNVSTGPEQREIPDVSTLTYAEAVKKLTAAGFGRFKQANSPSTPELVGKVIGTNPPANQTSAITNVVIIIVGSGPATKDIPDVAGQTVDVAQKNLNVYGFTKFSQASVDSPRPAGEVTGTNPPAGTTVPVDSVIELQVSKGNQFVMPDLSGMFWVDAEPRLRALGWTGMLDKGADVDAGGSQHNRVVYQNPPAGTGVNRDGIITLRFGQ
Sequence of cAMP-dependent protein kinase catalytic subunit PRKX (Homo sapiens) (P51817 whole entry): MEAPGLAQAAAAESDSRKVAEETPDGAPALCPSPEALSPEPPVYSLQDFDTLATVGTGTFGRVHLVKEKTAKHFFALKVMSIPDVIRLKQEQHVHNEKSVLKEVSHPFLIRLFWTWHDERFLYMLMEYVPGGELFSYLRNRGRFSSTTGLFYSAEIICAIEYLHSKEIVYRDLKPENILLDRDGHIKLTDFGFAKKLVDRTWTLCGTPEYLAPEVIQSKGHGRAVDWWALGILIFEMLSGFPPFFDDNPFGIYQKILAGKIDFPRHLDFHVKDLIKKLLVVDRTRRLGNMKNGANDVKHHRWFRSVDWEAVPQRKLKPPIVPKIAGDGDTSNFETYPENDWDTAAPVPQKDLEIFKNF

CN([C@@H]1CCc2c(CC(=O)O)c3cc(S(C)(=O)=O)ccc3n2C1)S(=O)(=O)c1ccc(F)cc1
residual activity [1]: 85% | residual activity [2]: 95% | residual activity [3]: 87% | residual activity [4]: 100% | residual activity [5]: 85% | residual activity [6]: 95% | inhibition [7]: 5.5% | residual activity [8]: 59% | residual activity [9]: 84% | residual activity [10]: 87% | residual activity [11]: 36% | residual activity [12]: 100% | residual activity [13]: 70% | residual activity [14]: 100% | residual activity [15]: 83% | residual activity [16]: 77% | residual activity [17]: 100% | residual activity [18]: 83% | residual activity [19]: 90% | residual activity [20]: 97% | residual activity [21]: 100% | residual activity [22]: 96% | residual activity [23]: 80% | inhibition [24]: 22.4% | residual activity [25]: 100% | residual activity [26]: 95% | residual activity [27]: 90% | residual activity [28]: 67% | residual activity [29]: 100% | residual activity [30]: 100% | residual activity [31]: 99% | residual activity [32]: 100% | residual activity [33]: 100% | residual activity [34]: 79% | residual activity [35]: 100% | residual activity [36]: 82% | residual activity [37]: 100% | residual activity [38]: 77% | residual activity [39]: 100% | residual activity [40]: 90% | residual activity [41]: 82% | residual activity [42]: 100% | residual activity [43]: 100% | residual activity [44]: 84% | residual activity [45]: 98%

CN([C@@H]1CCc2c(CC(=O)O)c3ccccc3n2C1)S(=O)(=O)c1ccc(F)cc1 [MK-7246]
residual activity [1]: 100% | residual activity [2]: 100% | residual activity [3]: 100% | residual activity [4]: 100% | residual activity [5]: 85% | residual activity [6]: 89% | inhibition [7]: 35.8% | residual activity [8]: 93% | residual activity [9]: 86% | residual activity [10]: 95% | residual activity [11]: 44% | residual activity [12]: 80% | residual activity [13]: 88% | residual activity [14]: 100% | residual activity [15]: 91% | residual activity [16]: 97% | residual activity [17]: 100% | residual activity [18]: 86% | residual activity [19]: 87% | residual activity [20]: 95% | residual activity [21]: 100% | residual activity [22]: 100% | residual activity [23]: 78% | inhibition [24]: 23.8% | residual activity [25]: 100% | residual activity [26]: 100% | residual activity [27]: 88% | residual activity [28]: 100% | residual activity [29]: 100% | residual activity [30]: 100% | residual activity [31]: 100% | residual activity [32]: 100% | residual activity [33]: 100% | residual activity [34]: 100% | residual activity [35]: 97% | residual activity [36]: 100% | residual activity [37]: 100% | residual activity [38]: 79% | residual activity [39]: 100% | residual activity [40]: 100% | residual activity [41]: 100% | residual activity [42]: 100% | residual activity [43]: 100% | residual activity [44]: 93% | residual activity [45]: 100%
